Results reported in US20200048183A1, “ANTIMICROBIAL AGENTS” (THE UNIVERSITY OF WARWICK, priority 2017, published 2020).
Converted amounts (≈) assume the structure as drawn. Like-named read-outs stand apart in the source and are kept apart here.

Tested on: multi-drug resistant A. baumannii strains
Assay: Minimum inhibitory concentration (MIC), broth microdilution method according to CLSI guidelines
Type: cell-based, Acinetobacter baumannii
Conditions: for MIC: Acinetobacter baumannii, read-out: MIC against A. baumannii
Protocol: MIC values for the compounds were determined using the broth microdilution method according to the official CLSI guidelines. Acinetobacter baumannii test strains were grown overnight in Mueller-Hinton (MH) broth at 37° C. In a 96-well microtiter plate, 50 μl of serial two-fold dilutions of an enacyloxin derivative in MH broth were mixed with 50 μl of bacterial suspension, diluted to a concentration of 10^6 CFU/ml in MH broth. The desired inoculum density was achieved using a 0.5 McFarland turbidity standard.

[1] = multi-drug resistant A. baumannii strains, broth microdilution in MH broth, 18 h at 37° C.

Compound | MIC [1] [µg/mL] | other results
CC/C=C/[C@@H](OC(N)=O)[C@@H](Cl)[C@H](O)CC(=O)[C@@H](O)[C@H](O)[C@H](C)/C(Cl)=C/C=C/C=C(C)/C=C/C=C/C(=O)O[C@@H]1C[C@@H](C(=O)O)C[C@@H](O)[C@@H]1O [Compound 4, 5′-hydroxy-enacyloxin IIa] | – | MIC (18 h): 16 µg/mL (≈ 22.3 µM)
18-dechloro-enacyloxin IIa [Compound 2] | – | MIC against A. baumannii [1]: 4 µg/mL
CC/C=C/[C@@H](O)C[C@H](O)CC(O)[C@@H](O)[C@H](O)[C@H](C)/C(Br)=C/C=C/C=C(C)/C=C/C=C/C(=O)O[C@@H]1C[C@@H](C(=O)O)CC[C@@H]1O (stereo partly drawn) [Compound 35] | 32 (≈ 47.6 µM) | –
CC/C=C/[C@@H](OC(N)=O)[C@@H](Cl)[C@H](O)CC(=O)[C@@H](O)[C@H](O)[C@H](C)/C(Cl)=C/C=C/C=C(C)/C=C/C=C/C(=O)NCC(O)CC(=O)O (stereo partly drawn) [Compound 23, enacyloxin-4-amino-3-hydroxybutyric acid conjugate] | – | MIC (18 h): 64 µg/mL (≈ 96.7 µM)
CC/C=C/[C@@H](OC(N)=O)[C@@H](Cl)[C@H](O)CC(=O)[C@@H](O)[C@H](O)[C@H](C)/C(Cl)=C/C=C/C=C(C)/C=C/C=C/C(=O)N[C@H]1CCC[C@H](C(=O)O)C1 [Compound 21] | 8 (≈ 11.7 µM) | –
CC/C=C/[C@@H](O)C[C@H](O)CC(O)[C@@H](O)[C@H](O)[C@H](C)/C(Cl)=C/C=C/C=C(C)/C=C/C=C/C(=O)O[C@@H]1C[C@@H](C(=O)O)CC[C@@H]1O (stereo partly drawn) [Compound 11] | 8 (≈ 12.8 µM) | –
CC/C=C/[C@@H](OC(N)=O)[C@@H](Cl)[C@H](O)CC(O)[C@@H](O)[C@H](O)[C@H](C)/C(Cl)=C/C=C/C=C(C)/C=C/C=C/C(=O)O[C@@H]1C[C@@H](C(=O)O)CC[C@@H]1O (stereo in doubt) [Compound 8, 15-hydroxy-enacyloxin IIa] | – | MIC (18 h): 8 µg/mL (≈ 11.4 µM)
CC/C=C/[C@@H](O)[C@@H](Br)[C@H](O)CC(O)[C@@H](O)[C@H](O)[C@H](C)/C(Br)=C/C=C/C=C(C)/C=C/C=C/C(=O)O[C@@H]1C[C@@H](C(=O)O)CC[C@@H]1O (stereo partly drawn) [Compound 33] | 1 (≈ 1.33 µM) | –
CC/C=C/[C@@H](OC(N)=O)[C@@H](Cl)[C@H](O)CC(=O)[C@@H](O)[C@H](O)[C@H](C)/C(Cl)=C/C=C/C=C(C)/C=C/C=C/C(=O)O[C@@H]1CC(C(=O)O)=CC[C@@H]1O [Compound 28, Δ5912-14 unsaturated enacyloxin analogue] | 0.5 (≈ 0.714 µM) | –
CC/C=C/[C@@H](OC(N)=O)[C@@H](Cl)[C@H](O)CC(=O)[C@@H](O)[C@H](O)[C@H](C)/C(Cl)=C/C=C/C=C(C)/C=C/C=C/C(=O)O[C@H]1CCC[C@H](C(=O)O)C1 [Compound 22] | 4 (≈ 5.83 µM) | –
CC/C=C/[C@@H](O)C[C@H](O)CC(O)C[C@H](O)[C@H](C)/C=C/C=C/C=C(C)/C=C/C=C/C(=O)O[C@@H]1C[C@@H](C(=O)O)CC[C@@H]1O (stereo partly drawn) [Compound 12] | > 64 | –
CC/C=C/[C@@H](O)[C@@H](Cl)[C@H](O)CC(O)[C@@H](O)[C@H](O)[C@H](C)/C(Cl)=C/C=C/C=C(C)/C=C/C=C/C(=O)O[C@@H]1C[C@@H](C(=O)O)CC[C@@H]1O (stereo in doubt) [Compound 9, 15-hydroxy-decarbamoyl enacyloxin IIa] | 1 (≈ 1.51 µM) | –
CC/C=C/[C@@H](O)[C@@H](Cl)[C@H](O)C[C@@H](O)[C@@H](O)[C@H](O)[C@H](C)/C(Cl)=C/C=C/C=C(C)/C=C/C=C/C(=O)O[C@@H]1CC(C(=O)O)=CC[C@@H]1O [Compound 29, Δ5930/32/12-14 unsaturated enacyloxin analogue] | 1 (≈ 1.52 µM) | –
CC/C=C/[C@@H](OC(N)=O)[C@@H](Br)[C@H](O)CC(=O)[C@@H](O)[C@H](O)[C@H](C)/C(Br)=C/C=C/C=C(C)/C=C/C=C/C(=O)O[C@@H]1C[C@@H](C(=O)O)CC[C@@H]1O [Compound 30] | 1 (≈ 1.26 µM) | –
CC/C=C/[C@@H](OC(N)=O)[C@@H](Cl)[C@H](O)CC(=O)[C@@H](O)[C@H](O)[C@H](C)/C(Cl)=C/C=C/C=C(C)/C=C/C=C/C(=O)O[C@@H]1C[C@H](C(=O)O)CC[C@H]1O [Compound 17] | 2 (≈ 2.85 µM) | –
CC/C=C/C1OC(O)([C@@H](O)[C@H](O)[C@H](C)/C(Cl)=C/C=C/C=C(C)/C=C/C=C/C(=O)O[C@@H]2C[C@@H](C(=O)O)CC[C@@H]2O)CC(O)C1Cl (stereo partly drawn) [Compound 3, decarbamoyl-enacyloxin IIa] | 4 (≈ 6.06 µM) | –
CC/C=C/[C@@H](OC(N)=O)[C@@H](Cl)[C@H](O)CC(=O)C[C@H](O)[C@H](C)/C(Cl)=C/C=C/C=C(C)/C=C/C=C/C(=O)O[C@@H]1C[C@@H](C(=O)O)CC[C@@H]1O [Compound 1, 14-dehydroxy-enacyloxin IIa] | 2 (≈ 2.91 µM) | –
CC/C=C/[C@H](C[C@H](O)CC(=O)C[C@H](O)[C@H](C)/C(Cl)=C/C=C/C=C(C)/C=C/C=C/C(=O)O[C@@H]1C[C@@H](C(=O)O)CC[C@@H]1O)OC(N)=O [Compound 6, 14-dehydroxy-18-dechloro-enacyloxin IIa] | 8 (≈ 12.3 µM) | –
CC/C=C/C(=O)C[C@H](O)CC(=O)[C@@H](O)[C@H](O)[C@H](C)/C(Cl)=C/C=C/C=C(C)/C=C/C=C/C(=O)O[C@@H]1C[C@@H](C(=O)O)CC[C@@H]1O [Compound 10, 18-dechloro-decarbamoyl-enacyloxin IIa] | – | MIC (18 h): 32 µg/mL (≈ 51.4 µM)
CC/C=C/C1OC(O)(C[C@H](O)[C@H](C)/C(Cl)=C/C=C/C=C(C)/C=C/C=C/C(=O)O[C@@H]2C[C@@H](C(=O)O)CC[C@@H]2O)CC(O)C1Cl (stereo partly drawn) [Compound 5, 14-dehydroxy-18-decarbamoyl-enacyloxin IIa] | 8 (≈ 12.4 µM) | –
CC/C=C/[C@@H](OC(N)=O)[C@@H](Cl)[C@H](O)CC(=O)[C@@H](O)[C@H](O)[C@H](C)/C=C/C=C/C=C(C)/C=C/C=C/C(=O)O[C@@H]1C[C@@H](C(=O)O)CC[C@@H]1O [Compound 7, 11-dechloro-enacyloxin IIa] | 4 (≈ 5.99 µM) | –
CC/C=C/[C@@H](OC(N)=O)[C@@H](Cl)[C@H](O)CC(=O)[C@@H](O)[C@H](O)[C@H](C)/C(Br)=C/C=C/C=C(C)/C=C/C=C/C(=O)O[C@@H]1C[C@@H](C(=O)O)CC[C@@H]1O [Compound 31] | 2 (≈ 2.68 µM) | –
CC/C=C/[C@@H](O)[C@@H](Cl)[C@H](O)CC(O)[C@@H](O)[C@H](O)[C@H](C)/C(Br)=C/C=C/C=C(C)/C=C/C=C/C(=O)O[C@@H]1C[C@@H](C(=O)O)CC[C@@H]1O (stereo partly drawn) [Compound 34] | – | MIC (18 h): 2 µg/mL (≈ 2.83 µM)
CC/C=C/[C@H](C[C@H](O)CC(=O)[C@@H](O)[C@H](O)[C@H](C)/C(Br)=C/C=C/C=C(C)/C=C/C=C/C(=O)O[C@@H]1C[C@@H](C(=O)O)CC[C@@H]1O)OC(N)=O [Compound 32] | 16 (≈ 22.5 µM) | –
